What follows are compounds tested against T1, RXRα (Homo sapiens, UniProt P19793) (assay: RXRα activation EC50 (Luc and GFP UAS/Gal4 assays)).
T1 sequence (P19793 227-458 limits assumed): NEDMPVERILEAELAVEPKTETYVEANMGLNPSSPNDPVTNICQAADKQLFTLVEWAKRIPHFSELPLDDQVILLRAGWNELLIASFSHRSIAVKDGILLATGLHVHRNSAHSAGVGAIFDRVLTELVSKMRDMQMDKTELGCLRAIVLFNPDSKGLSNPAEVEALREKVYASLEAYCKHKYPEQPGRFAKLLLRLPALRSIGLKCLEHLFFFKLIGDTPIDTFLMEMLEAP
Experimental: UAS/Gal4 assay. Bone marrow cells from UAS-GFP mice [79] were transduced with retroviruses MSCV-Gal4 (DNA binding domain, DBD)—RXRα (ligand binding domain, LBD)—IRES—mCherry. […] Cells were treated, and after 48 h, GFP was measured by flow cytometry.
Luciferase detection. HEK293T cells were transfected using Lipofectamine 2000 (Invitrogen) [80]. Six hours after transfection, the cells were collected and plated into a 48-well plate in 1% BSA media in biological triplicates and treated with compounds. After 40 h incubation, the cells were harvested and assayed for luciferase (Luc Assay System with Reporter Lysis Buffer, Promega) in a Beckman Coulter LD400 plate reader.

Row | EC50 | Structure (SMILES)
1 | 8.6 nM | Cc1cc2c(cc1N(C)c1ccc(C(=O)O)cc1)C(C)(C)CCC2(C)C [Compound 23, reference compound]
2 | 6.2 nM | Cc1cc2c(cc1N(C)c1ncc(C(=O)O)cn1)C(C)(C)CCC2(C)C [Compound 24, reference compound]
3 | 17.8 nM | CN(c1ccc2c(c1)C(C)(C)CCC2(C)C)c1ncc(C(=O)O)cn1 [Compound 25, reference compound]
4 | 51 nM | C=C(c1ccc(C(=O)O)cc1)c1cc2c(cc1C)C(C)(C)OCC2(C)C [Compound 26]
5 | 65.3 nM | Cc1ccc(/C=C/C(=O)O)cc1-c1cc2c(cc1C)C(C)(C)OCC2(C)C [Compound 27]
6 | 59.2 nM | Cc1cc2c(cc1-c1cc(/C=C/C(=O)O)ccc1C(F)(F)F)C(C)(C)COC2(C)C [Compound 28]
7 | 3.9 nM | Cc1cc2c(cc1-c1cc(/C=C/C(=O)O)ccc1O)C(C)(C)COC2(C)C [Compound 29]
8 | > 1000 nM | Cc1cc2c(cc1-c1coc3cc(C(=O)O)ccc13)C(C)(C)COC2(C)C [Compound 30]
9 | 5.4 nM | Cc1cc2c(cc1N(C)c1ccc(C(=O)O)cn1)C(C)(C)CCC2(C)C [Compound 31]
10 | 1.8 nM | C=CCN(c1ccc(C(=O)O)cn1)c1cc2c(cc1C)C(C)(C)CCC2(C)C [Compound 32]
11 | 5.3 nM | C=CCN(c1ncc(C(=O)O)cn1)c1cc2c(cc1C)C(C)(C)CCC2(C)C [Compound 33]
12 | 11.5 nM | C=CCN(c1ccc(C(=O)O)cc1)c1cc2c(cc1C)C(C)(C)CCC2(C)C [Compound 34]
13 | 0.54 nM | C=CCN(c1ccc2c(c1)C(C)(C)CCC2(C)C)c1ncc(C(=O)O)cn1 [Compound 35]
14 | 75 nM | Cc1cc2c(cc1N(C)c1ccc(C(=O)O)cn1)C(C)(C)COC2(C)C [Compound 36]
15 | 405 nM | Cc1cc2c(cc1N(C)c1ncc(C(=O)O)cn1)C(C)(C)COC2(C)C [Compound 37]
16 | 23.7 nM | CCN(c1ccc(C(=O)O)cn1)c1cc2c(cc1C)C(C)(C)OCC2(C)C [Compound 38]
17 | 152 nM | CCN(c1ncc(C(=O)O)cn1)c1cc2c(cc1C)C(C)(C)OCC2(C)C [Compound 39]
18 | 10.7 nM | C=CCN(c1ccc(C(=O)O)cn1)c1cc2c(cc1C)C(C)(C)OCC2(C)C [Compound 40]
19 | 143 nM | C=CCN(c1ncc(C(=O)O)cn1)c1cc2c(cc1C)C(C)(C)OCC2(C)C [Compound 41]
20 | 87.7 nM | Cc1cc2c(cc1N(C)c1ccc(C(=O)O)cc1)C(C)(C)COC2(C)C [Compound 42]
21 | 23.1 nM | CCN(c1ccc(C(=O)O)cc1)c1cc2c(cc1C)C(C)(C)OCC2(C)C [Compound 43]
22 | 116 nM | C=CCN(c1ccc(C(=O)O)cc1)c1cc2c(cc1C)C(C)(C)OCC2(C)C [Compound 44]
